The supplement of paper PMC4862054

Key:
Settings in all cases: incubation time: 72 h
BT-474 [1] = assay: normalised response (% of control), CellTox Green; higher = less cell death (100 = DMSO, 0 = benzethonium chloride kill control)
Procedure, shortened: (§1)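 Each entry is the normalised signal at a single concentration within a series. The series comprised 5 concentrations in 10-fold steps over a compound-specific 10,000-fold range, placed in 384-well plates into which breast cancer cell lines were seeded as 20 µl suspension and incubated 72 h. CellTox Green (485/520 nm) fluorescence and then CellTiter-Glo luminescence were read, with signals normalised per plate to 0.1 % DMSO (100) and a positive kill control (0).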

BT-549 [2] = assay: as above
Procedure, shortened: as §1

CAL-120 [3] = assay: as above
Procedure, shortened: as §1

CAL-148 [4] = assay: as above
Procedure, shortened: as §1

CAL-51 [5] = assay: as above
Procedure, shortened: as §1

CAL-85-1 [6] = assay: as above
Procedure, shortened: as §1

DU-4475 [7] = assay: as above
Procedure, shortened: as §1

HCC1143 [8] = assay: as above
Procedure, shortened: as §1

HCC1599 [9] = assay: as above
Procedure, shortened: as §1

HDQ-P1 [10] = assay: as above
Procedure, shortened: as §1

Hs578T [11] = assay: as above
Procedure, shortened: as §1

MCF-10A [12] = assay: as above
Procedure, shortened: as §1

MDA-MB-231 [13] = assay: as above
Procedure, shortened: as §1

MDA-MB-436 [14] = assay: as above
Procedure, shortened: as §1

MDA-MB-453 [15] = assay: as above
Procedure, shortened: as §1

MDA-MB-468 [16] = assay: as above
Procedure, shortened: as §1

MFM-223 [17] = assay: as above
Procedure, shortened: as §1

BT-474 [18] = assay: normalised response (% of control), CellTiter-Glo; higher = more viable cells (100 = DMSO, 0 = benzethonium chloride kill control)
Protocol: (§2)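 DSRT, 72 h incubation, CellTox Green / CellTiter-Glo readout. Signal is normalised to DMSO and benzethonium chloride controls. Value is the normalised response at dose 3.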

BT-549 [19] = assay: as above
Protocol: as §2

CAL-120 [20] = assay: as above
Protocol: as §2

CAL-148 [21] = assay: as above
Protocol: as §2

CAL-51 [22] = assay: as above
Protocol: as §2

CAL-85-1 [23] = assay: as above
Protocol: as §2

DU-4475 [24] = assay: as above
Protocol: as §2

HCC1143 [25] = assay: as above
Protocol: as §2

HCC1599 [26] = assay: as above
Protocol: as §2

HCC1937 [27] = assay: as above
Protocol: as §2

HDQ-P1 [28] = assay: as above
Protocol: as §2

Hs578T [29] = assay: as above
Protocol: as §2

MCF-10A [30] = assay: as above
Protocol: as §2

MDA-MB-231 [31] = assay: as above
Protocol: as §2

MDA-MB-436 [32] = assay: as above
Protocol: as §2

MDA-MB-453 [33] = assay: as above
Protocol: as §2

MDA-MB-468 [34] = assay: as above
Protocol: as §2

MFM-223 [35] = assay: as above
Protocol: as §2

SK-BR-3 = assay: as above
Protocol: as §2

HCC1937 [36] = assay: normalised response (% of control), CellTox Green; higher = less cell death (100 = DMSO, 0 = benzethonium chloride kill control)
Procedure, shortened: as §1

Structure (SMILES) | normalised response (BT-474 [1]) [%] | normalised response (BT-549 [2]) [%] | normalised response (CAL-120 [3]) [%] | normalised response (CAL-148 [4]) [%] | normalised response (CAL-51 [5]) [%] | normalised response (CAL-85-1 [6]) [%] | normalised response (DU-4475 [7]) [%] | normalised response (HCC1143 [8]) [%] | normalised response (HCC1599 [9]) [%] | normalised response (HDQ-P1 [10]) [%] | normalised response (Hs578T [11]) [%] | normalised response (MCF-10A [12]) [%] | normalised response (MDA-MB-231 [13]) [%] | normalised response (MDA-MB-436 [14]) [%] | normalised response (MDA-MB-453 [15]) [%] | normalised response (MDA-MB-468 [16]) [%] | normalised response (MFM-223 [17]) [%] | normalised response (BT-474 [18]) [%] | normalised response (BT-549 [19]) [%] | normalised response (CAL-120 [20]) [%] | normalised response (CAL-148 [21]) [%] | normalised response (CAL-51 [22]) [%] | normalised response (CAL-85-1 [23]) [%] | normalised response (DU-4475 [24]) [%] | normalised response (HCC1143 [25]) [%] | normalised response (HCC1599 [26]) [%] | normalised response (HCC1937 [27]) [%] | normalised response (HDQ-P1 [28]) [%] | normalised response (Hs578T [29]) [%] | normalised response (MCF-10A [30]) [%] | normalised response (MDA-MB-231 [31]) [%] | normalised response (MDA-MB-436 [32]) [%] | normalised response (MDA-MB-453 [33]) [%] | normalised response (MDA-MB-468 [34]) [%] | normalised response (MFM-223 [35]) [%] | normalised response (SK-BR-3) [%] | normalised response (HCC1937 [36]) [%]
CN1CCC(COc2cnc(-c3cccc(Cn4nc(-c5cccc(C#N)c5)ccc4=O)c3)nc2)CC1 (10 nM) | 94.1 | 103 | 95.4 | 108 | 83.9 | 108 | 99.5 | 89.6 | 101 | 115 | 76.3 | 70 | 98.5 | 88.8 | 100 | 73.8 | 103 | 96.7 | 104 | 98.8 | 92.9 | 64.8 | 97.2 | 99 | 101 | 100 | 94.6 | 96.4 | 92.8 | 94.9 | 102 | 89 | 89.2 | 93.2 | 89.8 | 80.8 | 
COc1cc(Nc2ncc3c(n2)-c2ccc(Cl)cc2C(c2c(F)cccc2OC)=NC3)ccc1C(=O)O [Alisertib] (100 nM) | 91.7 | 96.1 | 92.8 | 90.1 | 27.8 | 77.7 | 89.9 | 75 | 92.3 | 101 | -59.3 | 68.7 | 69.8 | 68.9 | 93.9 | 18.6 | 97 | 77.2 | 73.2 | 78.1 | 102 | 69.1 | 63.7 | 67 | 71.2 | 80.3 | 82.8 | 87 | 74.2 | 81.2 | 84 | 67.6 | 62 | 33.2 | 76.3 | 67.9 | 85.9
Nc1ccn([C@@H]2O[C@H](CO)[C@@H](O)[C@@H]2O)c(=O)n1 [Cytarabine] (100 nM) | 104 | 113 | 109 | 75.5 | 88.1 | 103 | 112 | 99.4 | 111 | 101 | 106 | 102 | 115 | 81.4 | 108 | 103 | 102 | 97.3 | 94 | 101 | 74.7 | 85.8 | 96.5 | 90.4 | 98.8 | 88.6 | 98.9 | 96.7 | 96.7 | 110 | 99 | 95.1 | 141 | 94.6 | 95.3 | 80.1 | 
Cc1c2oc3c(C)ccc(C(=O)N[C@@H]4C(=O)N[C@H](C(C)C)C(=O)N5CCC[C@H]5C(=O)N(C)CC(=O)N(C)[C@@H](C(C)C)C(=O)O[C@@H]4C)c3nc-2c(C(=O)N[C@@H]2C(=O)N[C@H](C(C)C)C(=O)N3CCC[C@H]3C(=O)N(C)CC(=O)N(C)[C@@H](C(C)C)C(=O)O[C@@H]2C)c(N)c1=O [Dactinomycin] (10 nM) | 102 | 80.4 | 102 | 17.1 | -32.3 | 69.3 | 74.7 | 117 | 99.3 | 82.8 | 104 | 109 | 43.8 | 90.8 | 91.5 | 84 | 104 | 64.6 | 13.3 | 65 | 27.2 | 20.4 | 51.7 | 3.42 | 54.7 | 102 | 51 | 41.5 | 58.7 | 52.2 | 62.1 | 53.4 | 84.7 | 18.7 | 88.9 | 59.2 | 107
CCN1CCN(c2ccc(Nc3cc(N(C)C(=O)Nc4c(Cl)c(OC)cc(OC)c4Cl)ncn3)cc2)CC1 [NVP-BGJ398] (10 nM) | 98.8 | 95 | 96.6 | 101 | 76 | 112 | 98.7 | 81.9 | 91.5 |  | 92 | 100 | 99.2 | 103 | 99.5 | 154 | 89.8 | 102 | 99.4 | 91.4 | 97.2 | 58.6 | 100 | 97.8 | 100 | 115 | 96.9 | 104 | 99.9 | 98.1 | 93.2 | 95.2 | 92.7 | 99.4 | 95.8 | 97.7 | 106
C=CCNC1=C2C[C@@H](C)C[C@H](OC)[C@H](O)[C@@H](C)/C=C(\C)[C@H](OC(N)=O)[C@@H](OC)/C=C\C=C(/C)C(=O)NC(=CC1=O)C2=O [Tanespimycin] (100 nM) | 76.6 | 91.7 | 90.5 | 71.8 | 82.5 | 74.2 | 93.8 | 90.8 | 103 | 81.7 | 100 | 69.5 |  | 67.8 | 84.5 | 111 | 99 | 99.3 | 47.2 | 85.8 | 85.5 | 47.6 | 98.8 | 86.4 | 49.5 | 93.8 | 70.8 | 61.1 | 66.7 | 50 | 95.9 | 47.3 | 27.9 | 97.3 | 53.7 | 44.2 | 98.7
C[C@]1(c2nc3c(C(N)=O)cccc3[nH]2)CCCN1 [Veliparib] (100 nM) | 101 | 108 | 98.3 | 103 | 96.9 | 105 | 102 | 95.9 | 115 | 109 | 111 |  | 95.9 | 61.1 | 103 | 107 | 108 | 98.3 | 101 | 96.5 | 96.4 | 76.4 | 105 | 103 | 100 | 102 | 101 | 102 | 102 | 96.5 | 105 | 99 | 102 | 96.5 | 98.6 | 95.2 | 87.8
CS(=O)(=O)c1ccc(C(=O)Nc2ccc(Cl)c(-c3ccccn3)c2)c(Cl)c1 [Vismodegib] (100 nM) | 92.5 | 86.2 | 98.9 |  | 98.4 | 105 | 101 | 99.2 | 100 | 108 | 80 | 96.2 | 72.6 | 91.3 | 93.1 | 87 | 88.8 | 94.4 | 101 | 93.1 | 94.6 | 109 | 98.8 | 99.4 | 94.1 | 95.1 | 99 | 99 | 95.5 | 93 | 94.3 | 96 | 88.4 | 96.8 | 94.4 | 92.7 | 97.9
